Patent publication US7422846B2, “Natural ligand for orphan G protein coupled receptor GPR86 and methods of use” (Euroscreen S.A, priority 2001, dated 2008)

What was measured:
human P2Y13 (GPR86) = molecular target: T1, human P2Y13 (GPR86) (Homo sapiens, UniProt Q9BPV8, T179M); experiment: Antagonism of ADP-induced IP3 accumulation in human P2Y13-AG32 cells; format: cell-based; conditions: 10 min pre-incubation, then ADP 100 nM for 30 s; means±S.D. of three independent experiments
T1 construct: expressed in transfected cells; host or cells: 1321N1 astrocytoma clone AG32 (stably expressing Gα16 from pERAEQ2), G418-selected
T1 sequence (Q9BPV8 22-354 T179M): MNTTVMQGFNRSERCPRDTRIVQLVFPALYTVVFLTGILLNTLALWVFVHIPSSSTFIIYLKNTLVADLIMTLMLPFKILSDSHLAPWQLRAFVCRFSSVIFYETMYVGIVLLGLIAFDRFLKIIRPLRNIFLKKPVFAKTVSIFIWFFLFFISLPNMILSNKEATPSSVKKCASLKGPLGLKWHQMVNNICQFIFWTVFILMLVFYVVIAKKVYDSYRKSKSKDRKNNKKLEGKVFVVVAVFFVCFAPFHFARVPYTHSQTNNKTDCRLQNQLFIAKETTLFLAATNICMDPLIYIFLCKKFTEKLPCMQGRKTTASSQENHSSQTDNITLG
Experimental: Antagonist were tested on AG32 cells transfected with human GPR86. AG32 cells were seeded (200,000 cells per dish) on 35 mm (diameter) Petri dishes and labeled for 24 h with 5 μCi/ml [^3H]-myoinositol in inositol free DMEM containing 5% fetal calf serum, antibiotics, amphotericin, sodium pyruvate, and 400 μg/ml of G418. […] Prior to the stimulation, cells were pre-incubated for 10 min in presence of Reactive Blue 2 (RB-2), Suramine, PPADS or MRS-2179. The cells were then incubated in presence of ADP 100 nM for 30 s. The incubation was stopped by the addition of 1 ml of an ice-cold 3% perchloric acid solution. […] The data represent the mean±S.D. of triplicate experimental points obtained in one representative experiment of three.

[1] = test system: 1321N1 cells expressing GPR86 receptor alone; conditions: nucleotides 100 μM for 30 s

Compound | IC50 (human P2Y13 (GPR86)) | IP3 response [1]
NCCc1c[nH]cn1 [histamine] | – | strong IP3 response
CNc1ncnc2c1ncn2[C@H]1C[C@H](OP(=O)(O)O)[C@@H](COP(=O)(O)O)O1 [MRS-2179] | > 100000 nM | –
Reactive Blue 2 | 1900 ± 100 nM | –

Continued, in another order:

IC50 (human P2Y13 (GPR86)) | Compound | IP3 response [1]
11700 ± 900 nM | Cc1nc(N=Nc2ccc(S(=O)(=O)O)cc2S(=O)(=O)O)c(COP(=O)(O)O)c(C=O)c1O [PPADS] | –
2300 ± 400 nM | Cc1ccc(C(=O)Nc2ccc(S(=O)(=O)O)c3cc(S(=O)(=O)O)cc(S(=O)(=O)O)c23)cc1NC(=O)c1cccc(NC(=O)Nc2cccc(C(=O)Nc3cc(C(=O)Nc4ccc(S(=O)(=O)O)c5cc(S(=O)(=O)O)cc(S(=O)(=O)O)c45)ccc3C)c2)c1 [Suramine] | –
